Reference: patent publication US9815832B2 (priority 2013, dated 2017)
pIC50: −log10 of the molar value. Structures can show the parent of a compound that is named as a salt.

biological target: human recombinant PDE4B (Homo sapiens (Human), UniProt Q07343, S133E/S654A/S659A/S661A); conditions: read-out: Human PDE4B FL
Sequence (Q07343 122-736 S133E/S654A/S659A/S661A): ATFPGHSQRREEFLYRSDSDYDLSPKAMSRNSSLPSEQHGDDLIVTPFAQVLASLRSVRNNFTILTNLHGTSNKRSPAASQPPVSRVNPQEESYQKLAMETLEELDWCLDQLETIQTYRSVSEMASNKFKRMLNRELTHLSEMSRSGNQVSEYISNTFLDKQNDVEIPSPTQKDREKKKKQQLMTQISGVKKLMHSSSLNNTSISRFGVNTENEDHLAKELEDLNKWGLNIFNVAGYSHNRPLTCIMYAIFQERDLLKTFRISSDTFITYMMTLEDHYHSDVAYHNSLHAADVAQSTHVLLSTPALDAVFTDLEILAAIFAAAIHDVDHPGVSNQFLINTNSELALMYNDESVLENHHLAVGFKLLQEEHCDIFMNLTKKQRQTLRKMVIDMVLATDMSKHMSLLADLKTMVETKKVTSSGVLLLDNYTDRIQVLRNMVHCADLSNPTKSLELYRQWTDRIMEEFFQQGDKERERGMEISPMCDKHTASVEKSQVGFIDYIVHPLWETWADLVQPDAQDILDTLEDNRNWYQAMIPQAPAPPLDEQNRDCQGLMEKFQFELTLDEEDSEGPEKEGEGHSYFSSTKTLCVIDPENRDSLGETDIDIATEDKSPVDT
Procedure: Reactions are incubated for 30 min at 25° C. The addition of 20 μL of 8 mg/mL yitrium silicate SPA beads (PerkinElmer) stops the reaction. The plates are sealed (TopSeal, PerkinElmer) and the beads are allowed to settle for 8 hrs, after which they are read on the Trilux Microbeta overnight.

| SMILES | pIC50 |
| --- | --- |
| CCCNC(=O)c1nc2cccnc2n1-c1ccc(Cl)c(F)c1 [Example 6, 3-(4-Chloro-3-fluorophenyl)-N-propyl-3H-imidazo[4,5-b]pyridine-2-carboxamide] | 7.42 |
| CN(C)C(=O)c1nc2cccnc2n1-c1ccc(Cl)c(F)c1 [Example 11, 3-(4-Chloro-3-fluorophenyl)-N,N-dimethyl-3H-imidazo[4,5-b]pyridine-2-carboxamide] | 6.39 |
| O=C(c1nc2cccnc2n1-c1cc(F)c(Cl)cc1F)N1CCC1 [Example 12, Azetidin-1-yl[3-(4-chloro-2,5-difluorophenyl)-3H-imidazo[4,5-b]pyridin-2-yl]methanone, trifluoroacetate salt] | 7.00 |
| CCCNC(=O)c1nc2cccnc2n1-c1ccc(Cl)cc1 [Example 13, 3-(4-Chlorophenyl)-N-propyl-3H-imidazo[4,5-b]pyridine-2-carboxamide] | 6.03 |
| Cn1ccc(NC(=O)c2nc3cccnc3n2C2CCCC2)n1 [Example 14, 3-Cyclopentyl-N-(1-methyl-1H-pyrazol-3-yl)-3H-imidazo[4,5-b]pyridine-2-carboxamide] | 6.09 |
| O=C(NC1CC1)c1nc2cccnc2n1C1CCOCC1 [Example 15, N-Cyclopropyl-3-(tetrahydro-2H-pyran-4-yl)-3H-imidazo[4,5-b]pyridine-2-carboxamide] | 5.76 |
| O=C(c1nc2cccnc2n1-c1ccc(Cl)cc1)N1CCC1 [Example 16, Azetidin-1-yl[3-(4-chlorophenyl)-3H-imidazo[4,5-b]pyridin-2-yl]methanone] | 6.71 |
| NC(=O)c1nc2cccnc2n1-c1ccc(Cl)c(F)c1 [Example 17, 3-(4-Chloro-3-fluorophenyl)-3H-imidazo[4,5-b]pyridine-2-carboxamide] | 5.07 |
| Cc1ccc(-n2c(C(=O)N3CCC3)nc3cccnc32)cc1F [Example 18, Azetidin-1-yl[3-(3-fluoro-4-methylphenyl)-3H-imidazo[4,5-b]pyridin-2-yl]methanone] | 7.31 |
| Cc1ccc(-n2c(C(=O)N3CC(F)C3)nc3cccnc32)cc1F [Example 19, (3-Fluoroazetidin-1-yl)[3-(3-fluoro-4-methylphenyl)-3H-imidazo[4,5-b]pyridin-2-yl]methanone] | 6.55 |
| N#Cc1c(F)cc(-n2c(C(=O)NC3CC3)nc3cccnc32)cc1F [Example 20, 3-(4-Cyano-3,5-difluorophenyl)-N-cyclopropyl-3H-imidazo[4,5-b]pyridine-2-carboxamide] | 7.86 |
| O=C(c1nc2cccnc2n1-c1ccc(Cl)c(F)c1)N1CC(F)C1 [Example 21, [3-(4-Chloro-3-fluorophenyl)-3H-imidazo[4,5-b]pyridin-2-yl](3-fluoroazetidin-1-yl)methanone] | 7.37 |
| O=C(c1nc2cccnc2n1-c1ccc(Cl)cc1F)N1CCC1 [Example 22, Azetidin-1-yl[3-(4-chloro-2-fluorophenyl)-3H-imidazo[4,5-b]pyridin-2-yl]methanone] | 6.56 |
| O=C(NC1CC1)c1nc2cccnc2n1-c1ccc(Cl)cc1F [Example 23, 3-(4-Chloro-2-fluorophenyl)-N-cyclopropyl-3H-imidazo[4,5-b]pyridine-2-carboxamide] | 6.20 |
| Cn1ccc(NC(=O)c2nc3cccnc3n2-c2ccc(Cl)cc2)n1 [Example 24, 3-(4-Chlorophenyl)-N-(1-methyl-1H-pyrazol-3-yl)-3H-imidazo[4,5-b]pyridine-2-carboxamide] | 6.68 |
| O=C(c1nc2cccnc2n1-c1ccc(Cl)cc1F)N1CC(F)C1 [Example 25, [3-(4-Chloro-2-fluorophenyl)-3H-imidazo[4,5-b]pyridin-2-yl](3-fluoroazetidin-1-yl)methanone] | 6.04 |
| Cc1cc(Cl)ccc1-n1c(C(=O)NC2CC2)nc2cccnc21 [Example 26, 3-(4-Chloro-2-methylphenyl)-N-cyclopropyl-3H-imidazo[4,5-b]pyridine-2-carboxamide] | 6.50 |
| Cc1ccc(-n2c(C(=O)NC3CC3)nc3cccnc32)cc1 [Example 29, N-Cyclopropyl-3-(4-methylphenyl)-3H-imidazo[4,5-b]pyridine-2-carboxamide] | 6.65 |
| O=C(NC1CC1)c1nc2cccnc2n1-c1cc(F)c(F)c(F)c1 [Example 30, N-Cyclopropyl-3-(3,4,5-trifluorophenyl)-3H-imidazo[4,5-b]pyridine-2-carboxamide, trifluoroacetate salt] | 8.24 |
| Cc1cc(Cl)ccc1-n1c(C(=O)N2CCC2)nc2cccnc21 [Example 34, Azetidin-1-yl[3-(4-chloro-2-methylphenyl)-3H-imidazo[4,5-b]pyridin-2-yl]methanone] | 6.40 |
| Cc1cc(Cl)ccc1-n1c(C(=O)N2CC(F)C2)nc2cccnc21 [Example 35, [3-(4-Chloro-2-methylphenyl)-3H-imidazo[4,5-b]pyridin-2-yl](3-fluoroazetidin-1-yl)methanone] | 5.95 |
| O=C(NC1CC1)c1nc2cccnc2n1-c1cncc(Cl)c1 [Example 37, 3-(5-Chloropyridin-3-yl)-N-cyclopropyl-3H-imidazo[4,5-b]pyridine-2-carboxamide] | 6.39 |
| O=C(c1nc2cccnc2n1-c1cncc(Cl)c1)N1CCC1 [Example 38, Azetidin-1-yl[3-(5-chloropyridin-3-yl)-3H-imidazo[4,5-b]pyridin-2-yl]methanone] | 6.33 |

| SMILES | pIC50 |
| --- | --- |
| N#Cc1ccc(-n2c(C(=O)NC3CC3)nc3cccnc32)cn1 [Example 39, 3-(6-Cyanopyridin-3-yl)-N-cyclopropyl-3H-imidazo[4,5-b]pyridine-2-carboxamide] | 6.44 |
| N#Cc1ccc(-n2c(C(=O)NC3CC3)nc3cccnc32)cc1 [Example 42, 3-(4-Cyanophenyl)-N-cyclopropyl-3H-imidazo[4,5-b]pyridine-2-carboxamide] | 6.56 |
| O=C(NC1CC1)c1nc2cccnc2n1-c1ccc(F)cc1F [Example 43, N-Cyclopropyl-3-(2,4-difluorophenyl)-3H-imidazo[4,5-b]pyridine-2-carboxamide] | 6.03 |
| Cc1ccc(F)cc1-n1c(C(=O)NC2CC2)nc2cccnc21 [Example 44, N-Cyclopropyl-3-(5-fluoro-2-methylphenyl)-3H-imidazo[4,5-b]pyridine-2-carboxamide] | 5.78 |
| O=C(NC1CC1)c1nc2cccnc2n1C1Cc2ccccc2C1 [Example 47, N-Cyclopropyl-3-(2,3-dihydro-1H-inden-2-yl)-3H-imidazo[4,5-b]pyridine-2-carboxamide] | 5.90 |
| COc1cc(-n2c(C(=O)NC3CC3)nc3cccnc32)ccc1C [Example 50, N-Cyclopropyl-3-(3-methoxy-4-methylphenyl)-3H-imidazo[4,5-b]pyridine-2-carboxamide] | 6.47 |
| N#Cc1cccc(-n2c(C(=O)NC3CC3)nc3cccnc32)c1 [Example 53, 3-(3-Cyanophenyl)-N-cyclopropyl-3H-imidazo[4,5-b]pyridine-2-carboxamide] | 6.54 |
| COc1cc(-n2c(C(=O)NC3CC3)nc3cccnc32)ccc1F [Example 55, N-Cyclopropyl-3-(4-fluoro-3-methoxyphenyl)-3H-imidazo[4,5-b]pyridine-2-carboxamide] | 6.52 |
| O=C(NC1CC1)c1nc2cccnc2n1-c1ccccc1 [Example 57, N-Cyclopropyl-3-phenyl-3H-imidazo[4,5-b]pyridine-2-carboxamide] | 5.94 |
| COc1ccc(-n2c(C(=O)NC3CC3)nc3cccnc32)cc1 [Example 58, N-Cyclopropyl-3-(4-methoxyphenyl)-3H-imidazo[4,5-b]pyridine-2-carboxamide] | 6.30 |
| Cc1ccc(-n2c(C(=O)NC3CC3)nc3cccnc32)c(C)c1 [Example 59, N-Cyclopropyl-3-(2,4-dimethylphenyl)-3H-imidazo[4,5-b]pyridine-2-carboxamide] | 5.99 |
| Cc1cc(F)ccc1-n1c(C(=O)NC2CC2)nc2cccnc21 [Example 60, N-Cyclopropyl-3-(4-fluoro-2-methylphenyl)-3H-imidazo[4,5-b]pyridine-2-carboxamide] | 5.92 |
| O=C(NC1CC1)c1nc2cccnc2n1-c1ccc2c(c1)COC2 [Example 61, N-Cyclopropyl-3-(1,3-dihydro-2-benzofuran-5-yl)-3H-imidazo[4,5-b]pyridine-2-carboxamide] | 5.80 |
| O=C(NC1CC1)c1nc2cccnc2n1-c1ccc(F)c(F)c1 [Example 62, N-Cyclopropyl-3-(3,4-difluorophenyl)-3H-imidazo[4,5-b]pyridine-2-carboxamide] | 7.46 |
| O=C(NC1CC1)c1nc2cccnc2n1-c1cc(Cl)cc(Cl)c1 [Example 63, N-Cyclopropyl-3-(3,5-dichlorophenyl)-3H-imidazo[4,5-b]pyridine-2-carboxamide] | 7.17 |
| O=C(NC1CC1)c1nc2cccnc2n1-c1ccc2c(c1)CCC2 [Example 64, N-Cyclopropyl-3-(2,3-dihydro-1H-inden-5-yl)-3H-imidazo[4,5-b]pyridine-2-carboxamide] | 6.69 |
| O=C(NC1CC1)c1nc2cccnc2n1-c1cccc(F)c1 [Example 65, N-Cyclopropyl-3-(3-fluorophenyl)-3H-imidazo[4,5-b]pyridine-2-carboxamide] | 6.73 |
| Cc1ccc(-n2c(C(=O)NC3CC3)nc3cccnc32)c(F)c1 [Example 67, N-Cyclopropyl-3-(2-fluoro-4-methylphenyl)-3H-imidazo[4,5-b]pyridine-2-carboxamide] | 6.21 |
| Cc1cccc(-n2c(C(=O)NC3CC3)nc3cccnc32)c1 [Example 70, N-Cyclopropyl-3-(3-methylphenyl)-3H-imidazo[4,5-b]pyridine-2-carboxamide] | 6.38 |
| O=C(NC1CC1)c1nc2cccnc2n1-c1ccc2ncsc2c1 [Example 71, 3-(1,3-Benzothiazol-6-yl)-N-cyclopropyl-3H-imidazo[4,5-b]pyridine-2-carboxamide] | 6.81 |
| Cc1nc2ccc(-n3c(C(=O)NC4CC4)nc4cccnc43)cc2s1 [Example 73, N-Cyclopropyl-3-(2-methyl-1,3-benzothiazol-6-yl)-3H-imidazo[4,5-b]pyridine-2-carboxamide] | 6.29 |
| Cc1cc(C)cc(-n2c(C(=O)NC3CC3)nc3cccnc32)c1 [Example 76, N-Cyclopropyl-3-(3,5-dimethylphenyl)-3H-imidazo[4,5-b]pyridine-2-carboxamide] | 6.43 |
